One data set has as its target T1, human thrombin (Homo sapiens, UniProt P00734).
T1 construct: human thrombin (Sigma Chemical Company); purchased Sigma Chemical Company
As to the kind of experiment: Measurement of inhibitory activity for thrombin (S-2238 chromogenic substrate). It counts as biochemical. Conditions: S-2238, 10 minutes at 37° C., pH 8.4. As for the experimental part:
2.5 μL of a dimethylsulfoxide solution of a test compound, 187.5 μL of 100 mM tris-200 mM NaCl buffer (pH 8.4) and 50 μL of 1 mM S-2238 (Daiichi Pure Chemicals) aqueous solution were poured into 96 well microplate. Then 10 μL of 2.0 U/mL human thrombin (Sigma Chemical Company) in gelatin-glycine buffer was added and the mixture was incubated for 10 minutes at 37° C. The reaction was terminated with the addition of 50 μL of 60% acetic acid and absorbance (405 nm) was measured by a microplate reader (SPECTRAmax 250, Molecular Devices).
The group with 2.5 μL of the dimethylsulfoxide solution instead of the test compound solution was defined as the control, and the group with 10 μL of the gelatin-glycine buffer solution instead of human thrombin was defined as the blank. The concentration of a test compound that inhibited the absorbance of control by 50% (IC50) was obtained, and this value was used as the index of inhibitory activity for thrombin.

Another data set has as its system normal human plasma. As to the kind of experiment: Measurement of anticoagulation effects (prolongation of plasma prothrombin time). The protocol:
Two μL of a dimethylsulfoxide solution of a test compound was put in the process tube and then incubated at 37° C. One minute after addition of 48 μL of normal human plasma (George King Bio-Medical Inc), 100 μL of plasma prothrombin time reagent (Boehringer Mannheim) prewarmed at 37° C. was added into the mixture. Prothrombin time was measured with a coagulometer (ST4, Boehringer Mannheim).
The group without any test compound was defined as the control. The concentration of test compound that prolonged the clotting time of the control by 2 times (CT2) was obtained and, this value was used as the index of anticoagulation activity.

In data set [1] the target is T2, human activated blood coagulation factor X (Homo sapiens, UniProt P00742).
T2 construct: purchased Calbiochem
The experiment in a line: Measurement of inhibitory activity for activated blood coagulation factor X (S-2222 chromogenic substrate). In kind it is biochemical. Conditions: S-2222, 10 minutes at 37° C., pH 8.4. As for the experimental part: 2.5 μL of a dimethylsulfoxide solution of a test compound, 187.5 μL of 100 mM tris-200 mM NaCl buffer (pH 8.4) and 50 μL of 1 mM S-2222 (Daiichi Pure Chemicals) aqueous solution were poured into 96 well microplate. Then 10 μL of 0.6 U/mL human activated blood coagulation factor X (Calbiochem) in gelatin-glycine buffer was added and the mixture was incubated for 10 minutes at 37° C. The reaction was terminated with the addition of 50 μL of 60% acetic acid and absorbance (405 nm) was measured by a microplate reader (SPECTRAmax 250, Molecular Devices).
The group with 2.5 μL of the dimethylsulfoxide solution instead of the test compound solution was defined as the control, and the group with 10 μL of the gelatin-glycine buffer solution instead of human activated blood coagulation factor X was defined as the blank.
Target sequence in this assay (P00742 235-488 limits assumed): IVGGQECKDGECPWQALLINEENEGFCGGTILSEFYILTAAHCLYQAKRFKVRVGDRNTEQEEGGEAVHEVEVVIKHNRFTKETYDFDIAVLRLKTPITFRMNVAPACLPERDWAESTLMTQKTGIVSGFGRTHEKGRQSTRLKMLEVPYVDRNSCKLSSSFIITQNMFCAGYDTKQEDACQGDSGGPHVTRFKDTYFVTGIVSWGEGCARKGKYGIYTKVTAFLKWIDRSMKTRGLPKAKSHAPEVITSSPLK
Target sequence in this assay (P00742 41-179 partner limits assumed): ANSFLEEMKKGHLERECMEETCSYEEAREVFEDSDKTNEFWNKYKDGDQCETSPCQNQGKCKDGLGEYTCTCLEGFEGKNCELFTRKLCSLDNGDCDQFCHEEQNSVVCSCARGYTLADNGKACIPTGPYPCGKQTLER

The next data set concerns Male ICR mice. The experiment in a line: Acute toxicity test. It counts as in vivo. The following applies: 50.0 mg/10.0 mL/kg into tail vein, survival judged for 24 hours, groups of 5. As for the experimental part: Male ICR mice aged 7 weeks (SLC) were divided into several groups consisted of 5 mice. A solution containing a test compound was prepared at the concentration that became the administration volume of the test compound to be 50.0 mg/10.0 mL/kg. The solution was administered into tail vein at an infusion rate of 1 mL/minute. Observations were performed at constant interval, and survival rate was judged for 24 hours. Results were shown as Table 5, and no death case was observed.

Data set [2] has as its target T2, human activated blood coagulation factor X. As to the kind of experiment: Oral administration test in rats: anti-activated blood coagulation factor X activity in plasma. It counts as in vivo, rat. The following applies: male Wistar rats, 30 minutes after oral administration, 30 mg/kg; plasma tested against human factor Xa. As for the experimental part: (§1) Male Wistar rats aged 6–9 weeks (SLC) fasted overnight were used. A test compound was dissolved or suspended in 0.5% methylcellulose solution at the concentration of 6.0 mg/mL. Then 5.0 mL/kg of that was orally administrated into the rats. Before and at proper time points after administration of the test compound, citrated (1:10 dilution, 3.13% sodium citrate) blood was collected from the jugular vein. Plasma samples were obtained by centrifugation.
2.5 μL of plasma sample, 200 μL of 100 mM tris-200 mM NaCl buffer (pH 8.4) and 10 μL of 0.06 U/mL human activated blood coagulation factor X (Calbiochem) in gelatin-glycine buffer were poured into 96 well microplate. Then 50 μL of 1 mM S-2222 (Daiichi Pure Chemicals) aqueous solution was added and the mixture was incubated for 10 minutes at room temperature. The reaction was terminated with the addition of 50 μL of 60% acetic acid and absorbance (405 nm) was measured by a microplate reader (SPECTRAmax 250, Molecular Devices).
The group with 2.5 μL of the control plasma instead of the plasma sample was defined as the control, and the group with 10 μL of gelatin-glycine buffer solution instead of human activated blood coagulation factor X was defined as the blank. The inhibitory % of plasma sample was calculated from absorbance of the control as 100% and this value was used as the index of anti-activated blood coagulation factor X activity in plasma.
(§2) 4) Results of anti-activated blood coagulation factor X activity in plasma and PT ratio at 30 minutes after oral administration of each test compound at a dose of 30 mg/kg were shown as Table 4.
Target sequence in this assay (P00742 235-488 limits assumed): as the sequence (P00742 235-488 limits assumed) above
Target sequence in this assay (P00742 41-179 limits assumed): as the sequence (P00742 41-179 partner limits assumed) above

The subject of another data set is plasma prothrombin time. As to the kind of experiment: Oral administration test in rats: prothrombin time (PT) of plasma. It counts as in vivo, rat. Conditions: male Wistar rats, 30 minutes after oral administration, 30 mg/kg; PT after administration to that before. The protocol:
as §1
Fifty μL of plasma was put in the process tube and then incubated at 37° C. One minute later, 100 μL of plasma PT reagent (Boehringer Mannheim) prewarmed at 37° C. was added into the mixture. PT was measured with a coagulometer (ST4, Boehringer Mannheim).
The ratio of PT at each time point after administration of the test compound to that of before administration was used as the index of anticoagulation activity.
as §2

Molecules are shown by their SMILES. Bounds are passed on as bounds.

The IC50 is the midpoint of a concentration-inhibition curve. A lower IC50 goes with greater potency.

Take `CS(=O)(=O)c1ccccc1-c1ccc(CCNS(=O)(=O)c2cc(C(=N)N)ccc2O)c(OCC(=O)O)c1.Cl` [Compound 33, [4-[2-(5-Carbamimidoyl-2-hydroxybenzenesulfonylamino)-ethyl]-2′-methanesulfonoylbiphenyl-3-yloxy]acetic acid hydrochloride]: at human thrombin, the concentration for half-maximal inhibition (IC50) was over 100 µM. Besides, the “Anticoagulation activity (μM): concentration that prolonged the clotting time of the control by 2 times (CT2)” value in the data set on normal human plasma was 0.52 µM.
For `CC(C)c1ccc(CCNS(=O)(=O)c2cc(C(=N)N)ccc2O)c(OCC(=O)O)c1` [Compound 42, [2-[2-(5-Carbamimidoyl-2-hydroxybenzenesulfonylamino)-ethyl]-5-isopropylphenoxy]acetic acid], the IC50 was 100 nM in data set [1] and over 100 µM at human thrombin. Further, the “Anticoagulation activity (μM): concentration that prolonged the clotting time of the control by 2 times (CT2)” value with normal human plasma turned out to be 2.4 µM. For the same compound, the Death case with Male ICR mice is 0/5.
As to `CCOC(=O)COc1cc(-c2ccccc2S(C)(=O)=O)ccc1CCNS(=O)(=O)c1cc(C(=N)NO)ccc1O` [Compound 43, Ethyl[4-[2-[2-hydroxy-5-(N-hydroxycarbamimidoyl)-benzenesulfonylamino]ethyl]-2′-mthanesulfonylbiphenyl-3-yloxy]acetate], the “Anti-activated blood coagulation factor X activity in plasma (%)” value in data set [2] stood at 32.0%. Moreover, the PT ratio in the data set with plasma prothrombin time worked out at 1.31.
For the compound `CCCCOC(=O)COc1cc(-c2ccccc2S(C)(=O)=O)ccc1CCNS(=O)(=O)c1cc(C(=N)NO)ccc1O.Cl` [Compound 48, n-Butyl[4-[2-[2-Hydroxy-5-(N-hydroxycarbamimidoyl)-benzenesulfonylamino]ethyl]-2′-methanesulfonylbiphenyl-3-yloxy]acetate hydrochloride], the “Anti-activated blood coagulation factor X activity in plasma (%)” value in data set [2] turned out to be 58.2%. Besides, the PT ratio with plasma prothrombin time was 1.50.
`CS(=O)(=O)c1ccccc1-c1ccc(CCNS(=O)(=O)c2cc(C(=N)NO)ccc2O)c(OCC(=O)OC2CCCCC2)c1` [Compound 49, Cyclohexyl[4-[2-[2-hydroxy-5-(N-hydroxycarbamimidoyl)-benzenesulfonylamino]ethyl]-2′-methanesulfonylbiphenyl-3-yloxy]acetate]: the “Anti-activated blood coagulation factor X activity in plasma (%)” value in data set [2] is listed as 51.4%. In addition, the PT ratio in the data set with plasma prothrombin time was 1.43.
On to `CC(C)c1ccc(CCNS(=O)(=O)c2cc(C(=N)N)ccc2O)c(S(N)(=O)=O)c1` [Compound 52, 5-Carbamimidoyl-2-hydroxy-N-[2-(4-isopropyl-2-sulfamoylphenyl)ethyl]benzenesulfonamide], for which the IC50 in data set [1] was 16 nM; against human thrombin, over 100 µM.
Taken in the same sequence, the figures for `Cc1nc(CN(CCc2ccc(C(C)C)cc2OCC(=O)O)S(=O)(=O)c2cc(C(=N)N)ccc2O)cs1` [Compound 53, [2-[2-[(5-Carbamimidoyl-2-hydroxybenzenesulfonyl)-(2-methyl-1,3-thiazol-4-ylmethyl)amino]ethyl]-5-isopropylphenoxy]acetic acid] were 51 nM and over 100 µM.

(Values after patent US7208524B2, “5-amidino-2-hydroxybenzenesulfonamide derivatives, pharmaceutical compositions containing the same and intermediates for their preparation” (Kissei Pharmaceutical Co., Ltd., priority 2000, dated 2007).)
